Molecules are shown by their SMILES.

The results in this text go back to patent US20070190628A1, “Yeast food composition for fuel ethanol production” (priority 2006, published 2007).

Assay type in all cases: cell-based, Saccharomyces cerevisiae
The test system of one experiment is active dry yeast “b”. The experiment can be described thus: Fermentation performance of commercial active dry yeasts in normal gravity corn mash. Conditions: strain “b”. On the procedure: The effects of the defined urea plus salts-based yeast food on fermentation performance of seven commercial active dry yeasts currently used by the fuel alcohol industry (Bellisimi et al., 2005, Am. Soc. Brew. Chem. J. Vol. 63, pp. 107-112) and designated herein as strains “b”, “d”, “e”, “w”, “x”, “y”, and “z”, were assessed in normal gravity corn mash prepared as described in Example 1. The commercial active dry yeasts were assessed with the following corn mash supplanted as follows: (a) 8 mM urea (control), or (b) 1% yeast extract, or (c) 8 mM urea supplemented with the defined urea plus salts yeast food of the present invention. The fermentation methods were followed as outlined in Example 4. Fermentation rates were determined by repeated sampling and sample processing at specific time intervals as described in Example 1.

Experiment [1] concerns active dry yeast “z”. The experiment can be described thus: Fermentation of normal gravity corn mash with nutrient supplements (Example 4). On the procedure:
(§1) The effects of the optimized defined urea plus salts-based nutrient supplement, i.e., defined yeast food, developed in Example 3 for corn mash fermentations, were assessed by comparisons of fermentation rates and ethanol production in normal gravity corn mashes and very high gravity corn mashes that were (a) supplemented with 16 mM urea only, or (b) yeast extract, or (c) supplemented with 16 mM urea plus the defined yeast food from Example 3 which in this set of studies, contained 1.6 g/L (NH4)2HPO4, 0.32 g/L (NH4)2SO4, 0.049 g/L MgSO4.7H2O, and 0.273 mg/L ZnSO4.7H2O.
(§2) Normal density corn mashes were prepared as described in Example 1 and were determined to contain about 18-20 g dissolved solids per 100 mL mash as determined by density meter analysis. […] The mash thus prepared contained 30-32 g of dissolved solids/100 mL as determined by density meter analysis. […]
(§3) Each study was commenced by removing fermentors containing either normal gravity corn mash or very high gravity corn mash from 4° C. storage, connecting them to 30° C. water bath circulators and continually mixing the corn mash contents therein until the temperature of each mash was 30° C. […] Fermentation performance in all treatments was assessed by repeated sampling and analyses of the mashes during the fermentation periods as described in Example 1.

For experiment [2], the system named is active dry yeast “z”. The experiment is described as follows: Fermentation of very high gravity corn mash with nutrient supplements (Example 4). How it is done:
as §1, §2, §3

Experiment [3] deals with active dry yeast “z”. The experiment is described as follows: Scaled batch fermentation (4 L) of normal gravity corn mash: fermentation time and ethanol production. The note with it: 4 L batch. How it is done:
The fermentation rate in each nutrient-amended corn mash was determined by following the disappearance of dissolved solids by analysis of each sample collected for determination of yeast biomass production, with a digital density meter analyzer (model DMA-45, Anton Paar KG, Graz, Austria) maintained at 20° C. The amounts of ethanol produced during fermentation of each nutrient-amended corn mash were determined by measuring the amount of NADH+H^+ produced after ethanol was converted to acetaldehyde by alcohol dehydrogenase (ADH; Sigma Chemical Co.). An aliquot of each sample was collected for determination of yeast biomass production and diluted to 1:500. […] The absorbance of each tube was then measured at 340 nm after 15 min of incubation using water as the blank. To determine the amount of ethanol produced, a standard curve (ethanol concentration versus absorbance) was prepared using a standard 10% (w/v) ethanol preparation diluted to 1:500 and then diluted further to produce range of ethanol concentrations from 0 to 20 μg in the assay above. The linear equation (y=mx+b) obtained from the plot was used to calculate the amount of ethanol in the test solutions, where y was the absorbance and x was the amount (μg) of ethanol. […] Fermentation rates and ethanol production were determined by repeated sampling and sample processing at specific time intervals as described in Example 1.

Regarding `NC(N)=O` [urea], in the experiment with active dry yeast “b” (normal gravity corn mash), the Fermentation rate is on record as 0.73 ± 0.04 g/100 mL/hr. In the experiment with active dry yeast “b” (complete disappearance of 20 g of dissolved solids/100 mL), the Fermentation time worked out at 72 h. For the same compound, in the experiment on active dry yeast “z” [1], the “fermentation period required to complete fermentation (disappearance of dissolved solids)” value was 48 h. In addition, in the experiment with active dry yeast “z” [2], the “time after which fermentation became “stuck”” value came out at 72 h. Further, in the experiment on active dry yeast “z” [3], the maximum ethanol production is recorded as 11 % v/v and the “time within which fermentation was completed” value is ≤ 48 h.
